Our source for the IC50 values is patent publication US11780845B2 (Relay Therapeutics, Inc., priority 2019, dated 2023).

In test [1] the target is FGFR2 (Homo sapiens (Human), UniProt P21802). Kind of test: FGFR2 Biochemical Caliper Assay. The method, then:
Compounds of the present invention were also tested in a FGFR2 Biochemical Caliper Assay. Compounds were prepared in 10 mM DMSO solution and serially diluted into 11 concentrations by 3-fold dilution. […] 5 uL of ATP solution (100 uM) was added to start the reaction and the plate was incubated for 90 minutes, then 70 uL of stopping buffer (0.5M EDTA) was added to terminate the reaction. Each well was analyzed using EZ reader.

Test [2] has as its system SNU16 cells. In words: SNU16 Cancer Cell Line Proliferation Assay. It is filed as cell-based. The conditions noted are these: Homo sapiens; SNU-16 cells. An outline of the steps: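 SNU16 cells were seeded, held 24 h at 37 degrees, then dosed with an 11-point 3-fold dilution series prepared from a 10 mM DMSO stock. After 96 h incubation, viability was read by CellTiter Glo luminescence.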

Chain of FGFR2 (P21802 22-821): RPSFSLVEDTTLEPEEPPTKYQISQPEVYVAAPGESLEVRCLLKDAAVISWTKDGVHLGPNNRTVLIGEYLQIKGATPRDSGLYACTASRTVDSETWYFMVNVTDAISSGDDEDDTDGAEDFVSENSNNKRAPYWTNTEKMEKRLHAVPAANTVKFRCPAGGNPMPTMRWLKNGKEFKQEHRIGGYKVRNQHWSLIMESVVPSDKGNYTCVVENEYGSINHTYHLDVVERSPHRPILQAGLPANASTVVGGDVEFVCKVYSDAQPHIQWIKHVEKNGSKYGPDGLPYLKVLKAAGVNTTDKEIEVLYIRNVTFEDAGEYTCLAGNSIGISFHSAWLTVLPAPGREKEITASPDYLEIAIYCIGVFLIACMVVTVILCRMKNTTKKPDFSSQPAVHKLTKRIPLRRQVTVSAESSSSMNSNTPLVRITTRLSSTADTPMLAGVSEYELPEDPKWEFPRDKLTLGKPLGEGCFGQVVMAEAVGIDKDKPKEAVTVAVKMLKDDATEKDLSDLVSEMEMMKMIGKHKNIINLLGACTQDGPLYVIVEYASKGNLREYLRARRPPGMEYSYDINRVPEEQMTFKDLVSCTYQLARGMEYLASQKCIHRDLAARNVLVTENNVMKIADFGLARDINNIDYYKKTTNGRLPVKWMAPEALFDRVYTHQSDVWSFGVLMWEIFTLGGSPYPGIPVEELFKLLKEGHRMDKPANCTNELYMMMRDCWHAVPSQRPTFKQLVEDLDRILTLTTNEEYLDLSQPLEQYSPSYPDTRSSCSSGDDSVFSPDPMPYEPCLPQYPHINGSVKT

By IC50 is commonly meant the concentration needed to halve the response being measured. As for `C=C(C)C(=O)Nc1ccc(-c2c(-c3ccc(Oc4nccc(C)n4)c(OC)c3)c3c(N)ncnc3n2C)c(F)c1` [Example 444], the IC50 was below 100 nM in test [1] and at most 100 nM in test [2].

Turning to `C=C(C)C(=O)Nc1ccc(-c2c(-c3ccc(Oc4cccc(C)n4)c(C#N)c3)c3c(N)ncnc3n2C)cc1` [Example 445], the 50% inhibitory concentration (IC50) in test [1] is below 100 nM; in test [2] it was at most 100 nM.

For the molecule `C=C(C)C(=O)Nc1ccc(-c2c(-c3ccc(Oc4nccc(C)n4)c(OC)c3)c3c(N)ncnc3n2C)cc1` [Example 446], the figures for the IC50 in test [1] and in test [2] were 100 to 250 nM and at most 100 nM, respectively.

`C=C(C)C(=O)Nc1ccc(-c2c(-c3cc(F)c(Oc4nccc(C)n4)c(F)c3)c3c(N)ncnc3n2C)cc1` [Example 447]: the IC50 in test [1] is below 100 nM; in test [2] it was at most 100 nM.

As for `C=C(C)C(=O)Nc1ccc(-c2c(-c3ccc(Oc4ncc(F)cn4)c(OC)c3)c3c(N)ncnc3n2C)cc1` [Example 448], the values for the IC50 in test [1] and in test [2] were 250 to 1000 nM and 100 to 250 nM, respectively.

For `C=C(C)C(=O)Nc1ccc(-c2c(-c3ccc(Oc4ncc(OC)cn4)c(F)c3)c3c(N)ncnc3n2C)cc1` [Example 449], the IC50 lay within 250 to 1000 nM in test [1] and 100 to 250 nM in test [2].

In the case of `C=C(C)C(=O)Nc1ccc(-c2c(C3=CCC(Oc4ncc(F)cn4)CC3)c3c(N)ncnc3n2C)cc1` (stereo not drawn) [Example 458], the values for the 50% inhibitory concentration (IC50) in test [1] and in test [2] were 100 to 250 nM and at most 100 nM, respectively.

Turning to `C=C(C)C(=O)Nc1ccc(-c2c(-c3ccc(C(=O)N4CCC[C@H]4C#N)cc3)c3c(N)ncnc3n2C)c(F)c1` [Example 459], the figures for the IC50 in test [1] and in test [2] were below 100 nM and at most 100 nM, respectively.

With `C=C(C)C(=O)Nc1ccc(-c2c(-c3ccc(Oc4cccc(C)n4)cn3)c3c(N)ncnc3n2C)cc1` [Example 460], the 50% inhibitory concentration (IC50) in test [1] was below 100 nM; in test [2], at most 100 nM.

As for `C=C(C)C(=O)Nc1ccc(-c2c(-c3ccc(C(=O)N4CCC5CC54)cc3)c3c(N)ncnc3n2C)c(F)c1` (stereo not drawn) [Example 461], the IC50 in test [1] was below 100 nM; in test [2], at most 100 nM.

Take `C=C(C)C(=O)Nc1ccc(-c2c(-c3ccc(C(=O)N4CCCC[C@H]4C)cc3)c3c(N)ncnc3n2C)c(F)c1` [Example 462]: the IC50 is below 100 nM in test [1] and at most 100 nM in test [2].

As to `C=C(C)C(=O)Nc1ccc(-c2c(-c3ccc(C(=O)N4CC5CC4C5)cc3)c3c(N)ncnc3n2C)c(F)c1` [Example 463], the IC50 was below 100 nM in test [1] and at most 100 nM in test [2].

In the case of `C=C(C)C(=O)Nc1ccc(-c2c(-c3ccc(C(=O)N(C)CC4(C#N)CC4)cc3)c3c(N)ncnc3n2C)c(F)c1` [Example 465], the IC50 in test [1] was below 100 nM; in test [2], at most 100 nM.

For the molecule `C=C(C)C(=O)Nc1ccc(-c2c(-c3ccc(C(=O)N(C)Cc4nc(C)no4)cc3)c3c(N)ncnc3n2C)c(F)c1` [Example 468], the IC50 is below 100 nM in test [1] and at most 100 nM in test [2].

Regarding `C=C(C)C(=O)Nc1ccc(-c2c(-c3ccc(C(=O)c4nccc(C)n4)cc3C)c3c(N)ncnc3n2C)cc1` [Example 471], the IC50 in test [1] and in test [2] was 100 to 250 nM throughout.

In the case of `C=C(C)C(=O)Nc1ccc(-c2c(-c3ccc(Oc4ncc(F)cn4)cn3)c3c(N)ncnc3n2C)cc1` [Example 474], the figures for the IC50 in test [1] and in test [2] were below 100 nM and at most 100 nM, respectively.

For `C=C(C)C(=O)Nc1ccc(-c2c(-c3ccc(Oc4cccc(C)n4)c(CN(C)C)c3)c3c(N)ncnc3n2C)cc1` [Example 475], the IC50 in test [1] lay within 1000 to 100000 nM; in test [2], 250 to 1000 nM.

With `Cc1cccc(Oc2ccc(-c3c(-c4ccc(NC#N)cc4)n(C)c4ncnc(N)c34)cc2)n1` [Example 476], the figures for the IC50 in test [1] and in test [2] were below 100 nM and at most 100 nM, respectively.

Turning to `C=C(C)C(=O)Nc1ccc(-c2c(-c3ccc(Oc4nccc(C)n4)c(C)c3)c3c(N)ncnc3n2C)c(F)c1` [Example 479], the IC50 in test [1] is below 100 nM; in test [2], at most 100 nM.

On to `C=C(C)C(=O)Nc1ccc(-c2c(-c3ccc(Oc4nccc(C)n4)c(F)c3)c3c(N)ncnc3n2C)c(F)c1` [Example 482], for which the figures for the IC50 in test [1] and in test [2] were below 100 nM and at most 100 nM, respectively.

As for `C=C(C)C(=O)Nc1ccc(-c2c(-c3ccc(Oc4nccc(C)n4)c(C)c3)c3c(N)ncnc3n2C)cc1` [Example 484], the IC50 is below 100 nM in test [1] and at most 100 nM in test [2].

Turning to `C=C(CN(C)C)C(=O)Nc1ccc(-c2c(-c3ccc(Oc4cccc(C)n4)cc3)c3c(N)ncnc3n2C)cc1` [Example 485], the IC50 was below 100 nM in test [1] and at most 100 nM in test [2].

Take `C=C(C)C(=O)Nc1ccc(-c2c(-c3ccc(C(=O)N4CC5CC5C4)cc3)c3c(N)ncnc3n2C)c(F)c1` (stereo not drawn) [Example 487]: the IC50 was below 100 nM in test [1] and at most 100 nM in test [2].

For the molecule `C=C(C)C(=O)Nc1ccc(-c2c(-c3ccc(Oc4nccc(C)n4)c(F)c3)c3c(N)ncnc3n2CCO)cc1` [Example 490], the IC50 in test [1] was below 100 nM; in test [2], at most 100 nM.

On to `C=C(C)C(=O)Nc1ccc(-c2c(-c3ccc(Oc4cncc(C)n4)c(F)c3)c3c(N)ncnc3n2C)cc1` [Example 492], for which the IC50 in test [1] is below 100 nM; in test [2], at most 100 nM.

For the molecule `C=C(C)C(=O)Nc1ccc(-c2c(-c3ccc(Oc4nccc(C)n4)c(F)c3)c3c(N)ncnc3n2CC)cc1` [Example 494], the IC50 is below 100 nM in test [1] and at most 100 nM in test [2].

In the case of `C=C(C)C(=O)Nc1ccc(-c2c(-c3cc(C)c(Oc4nccc(C)n4)c(OC)c3)c3c(N)ncnc3n2C)cc1` [Example 497], the IC50 was 100 to 250 nM in test [1] and at most 100 nM in test [2].

Consider `C=C(C)C(=O)Nc1ccc(-c2c(-c3ccc(Oc4nccc(CO)n4)c(F)c3)c3c(N)ncnc3n2C)cc1` [Example 498], for which the IC50 in test [1] is below 100 nM; in test [2] it was at most 100 nM.

With `C=C(C)C(=O)Nc1ccc(-c2c(-c3ccc(Oc4nccc(C)n4)c(F)c3)c3c(N)ncnc3n2C(C)C)cc1` [Example 499], the IC50 in test [1] is below 100 nM; in test [2], at most 100 nM.

`C=C(C)C(=O)Nc1ccc(-c2c(-c3ccc(Oc4nccc(C)n4)c(F)c3)c3c(N)ncnc3n2C)c(COC)c1` [Example 500]: the IC50 in test [1] was below 100 nM; in test [2], at most 100 nM.

As to `C=C(C)C(=O)Nc1ccc(-c2c(-c3ccc(Oc4nccc(C)n4)c(F)c3)c3c(N)ncnc3n2C)c(OC)c1` [Example 502], the figures for the IC50 in test [1] and in test [2] were below 100 nM and at most 100 nM, respectively.

As for `C=C(C)C(=O)Nc1ccc(-c2c(-c3ccc(Oc4nccc(C#N)n4)c(F)c3)c3c(N)ncnc3n2C)cc1` [Example 503], the IC50 is below 100 nM in test [1] and at most 100 nM in test [2].

As for `C=C(C)C(=O)Nc1ccc(-c2c(-c3ccc(Oc4nccc(C)n4)c(Cl)c3)c3c(N)ncnc3n2C)cc1` [Example 505], the IC50 is below 100 nM in test [1] and at most 100 nM in test [2].

Regarding `C=C(C)C(=O)Nc1ccc(-c2c(-c3ccc(Oc4ccnc(C)n4)c(Cl)c3)c3c(N)ncnc3n2C)cc1` [Example 506], the IC50 in test [1] and in test [2] was 250 to 1000 nM each time.

Regarding `C=C(C)C(=O)Nc1ccc(-c2c(-c3ccc(Oc4nccc(OC)n4)c(F)c3)c3c(N)ncnc3n2C)cc1` [Example 507], the IC50 in test [1] is below 100 nM; in test [2], at most 100 nM.

Take `C=C(C)C(=O)Nc1ccc(-c2c(-c3ccc(Oc4nccc(C)n4)c(C#N)c3)c3c(N)ncnc3n2C)cc1` [Example 508]: the IC50 in test [1] was below 100 nM; in test [2] it was at most 100 nM.
